According to US20070142356A1, “Association of a sinus node If curent inhibitor and a calcium inhibitor, and pharmaceutical compositions containing it” (LES LABORATOIRES SERVIER, priority 2005, published 2007):

Test system: patients being treated with dihydropyridine type calcium antagonists who still complained of painful angina pectoris attacks
Assay: Clinical studies 019 and 021: angina attacks in patients on dihydropyridines given concomitant ivabradine
Format: in vivo
Conditions: for Change in the number of angina pectoris attacks, %: after 1 year of ivabradine versus inclusion; for Number of angina pectoris attacks (per week), after treatment: patients on dihydropyridines on inclusion, ivabradine for 1 year
Source text: Two clinical studies carried out in patients being treated with dihydropyridine type calcium antagonists who still complained of painful angina pectoris attacks (despite the calcium antagonist) have shown that concomitant treatment with ivabradine makes it possible to reduce these attacks very substantially (by about 60%).

With `COc1cc2c(cc1OC)CC(=O)N(CCCN(C)C[C@H]1Cc3cc(OC)c(OC)cc31)CC2` [ivabradine, 3-{3-[{[(7S)-3,4-dimethoxy-bicyclo[4.2.0]octa-1,3,5-trien-7-yl]methyl}(methyl)amino]propyl}-7,8-dimethoxy-1,3,4,5-tetrahydro-2H-3-benzazepin-2-one] the “Change in the number of angina pectoris attacks, %” value (Study 019, n = 27) was −61.4%, the “Number of angina pectoris attacks (per week), after treatment” value (Study 019, n = 27) was 0.7 ± 1.3 per week and the “Change in the number of angina pectoris attacks, %” value (Study 021, n = 114) was −58.9%. For the same compound, the “Number of angina pectoris attacks (per week), after treatment” value (Study 021, n = 114) was 0.9 ± 2.9 per week and the “Reduction of painful angina pectoris attacks” value (two clinical studies, ivabradine concomitant with dihydropyridine calcium antagonist) was “about 60%”.
